Blank lines part the entries; values can stand above or below the compound they belong to. Calls of active or inactive are those of the source.
Columns and labels:
Galanin receptor type 3 = Galanin receptor type 3 (Homo sapiens, UniProt O60755); test: Fluorescence-based cell-based primary high throughput dose response assay to identify antagonists of the Galanin Receptor 3 (GalR3).; assay type: functional
cells [1] = assay type: functional, cell-based; conditions: HEK-CNG
Beta-galactosidase = Beta-galactosidase (Escherichia coli, UniProt Q8VNN2); test: Dose response counterscreen for EBI2 assay utilizing the enzyme, b-galactosidase.; assay type: functional
Beta-galactosidase, sequence (Q8VNN2 whole entry): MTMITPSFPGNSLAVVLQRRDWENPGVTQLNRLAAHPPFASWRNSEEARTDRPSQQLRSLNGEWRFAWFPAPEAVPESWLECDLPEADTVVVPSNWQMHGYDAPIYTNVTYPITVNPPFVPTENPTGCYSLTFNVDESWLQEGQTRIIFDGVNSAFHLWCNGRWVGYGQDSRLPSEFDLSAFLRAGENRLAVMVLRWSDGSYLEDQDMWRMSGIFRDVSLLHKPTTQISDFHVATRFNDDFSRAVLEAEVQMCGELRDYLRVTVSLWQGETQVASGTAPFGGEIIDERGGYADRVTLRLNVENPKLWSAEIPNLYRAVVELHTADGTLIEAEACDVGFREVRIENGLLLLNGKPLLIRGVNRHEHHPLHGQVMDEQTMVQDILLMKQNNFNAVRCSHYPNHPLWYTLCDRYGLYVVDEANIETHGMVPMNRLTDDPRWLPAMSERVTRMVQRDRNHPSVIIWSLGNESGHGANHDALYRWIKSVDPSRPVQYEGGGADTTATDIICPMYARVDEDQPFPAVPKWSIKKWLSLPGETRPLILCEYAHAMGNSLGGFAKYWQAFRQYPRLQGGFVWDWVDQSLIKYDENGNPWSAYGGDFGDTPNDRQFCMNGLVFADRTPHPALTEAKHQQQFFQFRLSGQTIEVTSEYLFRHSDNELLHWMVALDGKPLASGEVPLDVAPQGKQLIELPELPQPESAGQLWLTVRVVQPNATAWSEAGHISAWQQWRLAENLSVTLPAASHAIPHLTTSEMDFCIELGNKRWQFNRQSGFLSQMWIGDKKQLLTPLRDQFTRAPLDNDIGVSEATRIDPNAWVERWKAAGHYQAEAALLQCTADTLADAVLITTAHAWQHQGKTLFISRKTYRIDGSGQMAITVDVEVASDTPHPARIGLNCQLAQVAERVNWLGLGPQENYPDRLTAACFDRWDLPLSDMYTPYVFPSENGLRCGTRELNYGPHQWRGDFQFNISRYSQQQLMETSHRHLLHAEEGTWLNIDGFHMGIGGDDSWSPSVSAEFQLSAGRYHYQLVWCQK

cells [2] = conditions: HEK293
INS1 = test: INS-1E survival protection against cytokine death – cell-based, luminescence, retest, dose response (AID 449756); assay type: functional; conditions: Rattus norvegicus, INS1;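 further: cell death triggered by IL-1 beta plus TNF-alpha plus IFN-gamma mixture; protective hits raise ATP signal compared with cytokine alone wells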
[3] = reduction of Shn3 3'UTR-driven luciferase in osteoblasts – cell-based, Clone20 osteoblasts, firefly luciferase, cherry-picked, dose response (AID 624132); assay type: functional;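 further: firefly luciferase luminescence from reporter carrying the Shn3 3'UTR in osteoblasts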
[4] = loss of viability in HepG2 cells – cell-based, CellTiter-Glo, cherry-picked, cytotoxicity control for Shn3 inhibitor project, dose response (AID 624134); assay type: functional
[5] = non-specific 3'UTR reporter inhibition in Clone20-Shn3RL – cell-based, Renilla luciferase, cherry-picked, counter-screen for Shn3 inhibitor project, dose response (AID 624133); assay type: functional
[6] = Shn3 3'UTR reporter signal decrease – cell-based, Clone20 osteoblasts, firefly luciferase, cherry-pick, set 2, Schnurri-3 inhibitor project, dose response (AID 720490); assay type: functional;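 further: actives lower the luminescence signal as inhibitors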
[7] = EF1alpha-driven Renilla reporter with control 3'UTR suppression – Clone20-Shn3RL cells, dual-Glo, cherry-pick, set 2, counter-screen for Shn3 3'UTR targeting project, dose response (AID 720724); assay type: functional, cell-based; conditions: Dual-Go Shn3RL
[8] = target: T1, Polyadenylate-binding protein 1 (Homo sapiens, UniProt P11940); test: MLLE binding blockers, Cy5 peptide tracer – biochemical, fluorescence polarization, Cy5-PAM2 peptide, secondary, miRNA deadenylation inhibitor project, dose response (AID 602260); assay type: functional; conditions: read-out: IC50_Mean
T1 sequence (P11940 whole entry, the tested form may be a part): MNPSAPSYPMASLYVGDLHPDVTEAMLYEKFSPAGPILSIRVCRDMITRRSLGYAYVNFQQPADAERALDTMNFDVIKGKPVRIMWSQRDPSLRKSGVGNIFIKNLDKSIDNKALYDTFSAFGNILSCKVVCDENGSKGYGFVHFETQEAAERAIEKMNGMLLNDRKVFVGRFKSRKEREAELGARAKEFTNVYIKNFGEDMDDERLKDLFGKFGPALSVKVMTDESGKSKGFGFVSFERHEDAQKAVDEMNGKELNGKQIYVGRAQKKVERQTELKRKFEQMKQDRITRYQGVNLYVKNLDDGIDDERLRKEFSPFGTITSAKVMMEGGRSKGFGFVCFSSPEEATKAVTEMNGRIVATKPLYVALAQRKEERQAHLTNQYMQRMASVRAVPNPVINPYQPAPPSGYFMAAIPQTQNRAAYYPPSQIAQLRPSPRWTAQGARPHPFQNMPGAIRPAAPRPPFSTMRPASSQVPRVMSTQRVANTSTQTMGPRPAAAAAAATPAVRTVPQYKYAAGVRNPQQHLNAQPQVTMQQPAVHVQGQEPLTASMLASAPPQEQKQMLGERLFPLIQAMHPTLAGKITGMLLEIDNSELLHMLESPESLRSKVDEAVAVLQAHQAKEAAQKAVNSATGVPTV

[9] = target: T1, Polyadenylate-binding protein 1; test: MLLE domain peptide-binding blockers, IC50 – biochemical, fluorescence polarization, FITC-PAM2 peptide, dose response (AID 602259); assay type: functional; conditions: read-out: IC50_Mean
[10] = target: T2, Sentrin-specific protease 8 (Homo sapiens, UniProt Q96LD8); assay type: functional
T2 sequence (Q96LD8 whole entry): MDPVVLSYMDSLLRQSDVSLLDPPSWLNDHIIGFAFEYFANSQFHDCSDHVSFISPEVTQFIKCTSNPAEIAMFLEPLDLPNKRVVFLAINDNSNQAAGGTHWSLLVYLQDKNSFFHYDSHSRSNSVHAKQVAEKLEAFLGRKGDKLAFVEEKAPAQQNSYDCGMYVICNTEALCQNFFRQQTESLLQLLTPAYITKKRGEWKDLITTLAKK

[11] = target: T2, Sentrin-specific protease 8; assay type: functional; remark: listed apart in the source
Caspase-3 = target: T3, Caspase-3 (Homo sapiens, UniProt P42574); test: Dose-response confirmation of uHTS inhibitor hits of Sentrin-Specific Protease 8 in a Caspase-3 Fluorescence assay.; assay type: functional
T3 sequence (P42574 whole entry): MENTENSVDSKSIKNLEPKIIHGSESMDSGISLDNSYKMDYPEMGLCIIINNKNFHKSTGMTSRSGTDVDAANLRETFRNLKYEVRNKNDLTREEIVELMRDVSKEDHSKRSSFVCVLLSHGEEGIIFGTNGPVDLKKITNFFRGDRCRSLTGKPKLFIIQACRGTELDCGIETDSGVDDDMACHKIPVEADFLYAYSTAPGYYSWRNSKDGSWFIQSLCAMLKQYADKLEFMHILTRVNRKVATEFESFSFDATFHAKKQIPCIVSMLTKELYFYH

[12] = target: Tyrosyl-DNA phosphodiesterase 2 (Homo sapiens, UniProt O95551); test: potency against TDP2 phosphodiesterase activity – biochemical, epi absorbance, IC50, dose response (AID 743297)
[13] = Counterscreen for […] of the human trace amine associated receptor 1 (TAAR1): Fluorescence-based cell-based high throughput dose response assay to identify nonselective Ga16 agonists.; assay type: functional
[14] = target: T4, Trace amine-associated receptor 1 (Homo sapiens, UniProt Q96RJ0); test: Fluorescence-based cell-based high throughput dose response assay to identify antagonists of the human trace amine associated receptor 1 (TAAR1).; assay type: functional
T4 sequence (Q96RJ0 whole entry): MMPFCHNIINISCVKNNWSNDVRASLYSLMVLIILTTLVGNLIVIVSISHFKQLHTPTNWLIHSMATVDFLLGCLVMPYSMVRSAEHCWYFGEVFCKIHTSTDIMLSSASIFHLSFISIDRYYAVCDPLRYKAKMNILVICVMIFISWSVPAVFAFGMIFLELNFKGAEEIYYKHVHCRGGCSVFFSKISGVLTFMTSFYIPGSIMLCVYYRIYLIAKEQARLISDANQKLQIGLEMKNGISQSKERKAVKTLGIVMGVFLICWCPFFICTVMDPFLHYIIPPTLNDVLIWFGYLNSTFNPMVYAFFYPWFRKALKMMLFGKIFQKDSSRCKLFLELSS

[15] = Counterscreen for antagonists of the human trace amine associated receptor 1 (hTAAR1): Fluorescence-based cell-based high throughput dose response assay to identify nonselective Ga16 antagonists.; assay type: functional
[16] = target: T4, Trace amine-associated receptor 1; test: Counterscreen for antagonists of the human trace amine associated receptor 1 (hTAAR1): Fluorescence-based cell-based high throughput dose response assay to identify TAAR1 Agonists.; assay type: functional
[17] = target: 1-phosphatidylinositol 4,5-bisphosphate phosphodiesterase gamma-1 (Homo sapiens, UniProt P19174); test: Counterscreen for inhibitors of phospholipase C isozymes (PLC-B3): Fluorescence-based biochemical high throughput dose response assay to identify inhibitors of phospholipase C isozymes (PLC-gamma1).
1-phosphatidylinositol 4,5-bisphosphate phosphodiesterase gamma-1, sequence (P19174 whole entry): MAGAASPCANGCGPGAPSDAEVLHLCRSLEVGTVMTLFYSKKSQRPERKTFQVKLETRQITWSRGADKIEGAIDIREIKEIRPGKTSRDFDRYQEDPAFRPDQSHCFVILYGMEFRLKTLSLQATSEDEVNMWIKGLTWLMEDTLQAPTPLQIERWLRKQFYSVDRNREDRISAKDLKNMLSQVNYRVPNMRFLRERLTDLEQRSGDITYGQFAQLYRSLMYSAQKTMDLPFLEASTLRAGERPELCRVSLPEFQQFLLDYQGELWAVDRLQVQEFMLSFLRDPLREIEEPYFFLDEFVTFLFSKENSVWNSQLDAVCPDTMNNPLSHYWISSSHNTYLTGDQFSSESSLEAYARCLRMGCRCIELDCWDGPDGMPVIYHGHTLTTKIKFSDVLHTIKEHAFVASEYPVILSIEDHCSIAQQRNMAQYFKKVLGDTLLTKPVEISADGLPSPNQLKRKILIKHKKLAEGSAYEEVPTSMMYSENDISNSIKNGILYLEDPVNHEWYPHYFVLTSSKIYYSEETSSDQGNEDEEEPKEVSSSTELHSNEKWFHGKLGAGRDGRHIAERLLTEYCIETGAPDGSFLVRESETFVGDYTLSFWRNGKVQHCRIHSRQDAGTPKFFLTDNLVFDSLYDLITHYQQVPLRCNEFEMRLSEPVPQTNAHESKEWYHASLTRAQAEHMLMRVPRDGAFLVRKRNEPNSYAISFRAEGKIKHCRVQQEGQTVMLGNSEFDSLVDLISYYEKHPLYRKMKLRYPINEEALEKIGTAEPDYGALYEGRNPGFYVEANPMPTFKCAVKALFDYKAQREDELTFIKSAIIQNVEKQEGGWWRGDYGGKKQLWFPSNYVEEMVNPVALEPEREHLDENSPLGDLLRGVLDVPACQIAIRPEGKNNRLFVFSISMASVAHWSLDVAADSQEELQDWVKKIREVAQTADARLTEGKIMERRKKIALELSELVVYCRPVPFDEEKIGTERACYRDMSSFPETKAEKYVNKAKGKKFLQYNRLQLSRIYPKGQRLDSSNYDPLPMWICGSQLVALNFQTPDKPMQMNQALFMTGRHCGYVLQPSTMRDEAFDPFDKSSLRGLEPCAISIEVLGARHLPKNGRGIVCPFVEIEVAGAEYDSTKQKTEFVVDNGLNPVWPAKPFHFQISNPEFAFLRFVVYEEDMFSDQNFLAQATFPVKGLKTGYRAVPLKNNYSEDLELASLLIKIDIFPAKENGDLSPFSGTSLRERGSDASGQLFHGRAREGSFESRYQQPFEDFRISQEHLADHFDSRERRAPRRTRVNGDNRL

[18] = target: 1-phosphatidylinositol 4,5-bisphosphate phosphodiesterase beta-3 (Homo sapiens, UniProt Q01970); test: Fluorescence-based biochemical high throughput dose response assay to identify inhibitors of phospholipase C isozymes (PLC-B3).
HEK293 [19] = test: inhibition of NOD1-driven NF-kB reporter – cell-based, luminescence, uHTS, primary screen (AID 1578); assay type: functional; conditions: Homo sapiens
HEK293 [20] = test: cells; assay type: functional, cell-based; conditions: Homo sapiens
HEK293 [21] = test: cells; assay type: functional, cell-based; conditions: Homo sapiens; remark: listed apart in the source
HEK293 [22] = test: NOD2 signaling inhibitors in MDP-stimulated cells, cell-based, uHTS, luminescence (AID 2001); assay type: functional; conditions: Homo sapiens
[23] = target: ADP-ribosylation factor GTPase-activating protein 1 (Rattus norvegicus, UniProt Q62848); test: Fluorescence polarization-based biochemical high throughput dose response screening assay to identify inhibitors of ADP-ribosylation factor GTPase activating protein 1 (ARFGAP1).; assay type: functional
ADP-ribosylation factor GTPase-activating protein 1, sequence (Q62848 whole entry, the tested form may be a part): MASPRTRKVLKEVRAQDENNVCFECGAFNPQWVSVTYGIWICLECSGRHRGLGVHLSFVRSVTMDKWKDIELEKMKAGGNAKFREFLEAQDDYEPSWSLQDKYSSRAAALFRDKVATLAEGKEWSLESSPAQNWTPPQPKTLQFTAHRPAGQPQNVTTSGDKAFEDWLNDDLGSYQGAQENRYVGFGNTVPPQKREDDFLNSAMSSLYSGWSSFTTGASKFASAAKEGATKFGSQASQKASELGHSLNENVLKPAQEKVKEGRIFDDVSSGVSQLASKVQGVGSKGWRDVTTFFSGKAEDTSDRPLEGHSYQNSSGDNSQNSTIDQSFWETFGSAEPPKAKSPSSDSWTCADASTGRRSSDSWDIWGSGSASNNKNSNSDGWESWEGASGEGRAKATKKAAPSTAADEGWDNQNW

[24] = target: Arf-GAP with SH3 domain, ANK repeat and PH domain-containing protein 1 (Homo sapiens, UniProt Q9ULH1); assay type: functional;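 further: biochemical fluorescence polarization dose–response screen measuring inhibition of ASAP1; ASAP1 GAP domain stimulating GTP hydrolysis by truncated human ARF1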
[25] = target: T5, Beta-2 adrenergic receptor (Homo sapiens, UniProt P07550); test: Dose response for HTS for Beta-2AR agonists via FAP method from Powderset1.; assay type: functional
T5 sequence (P07550 whole entry): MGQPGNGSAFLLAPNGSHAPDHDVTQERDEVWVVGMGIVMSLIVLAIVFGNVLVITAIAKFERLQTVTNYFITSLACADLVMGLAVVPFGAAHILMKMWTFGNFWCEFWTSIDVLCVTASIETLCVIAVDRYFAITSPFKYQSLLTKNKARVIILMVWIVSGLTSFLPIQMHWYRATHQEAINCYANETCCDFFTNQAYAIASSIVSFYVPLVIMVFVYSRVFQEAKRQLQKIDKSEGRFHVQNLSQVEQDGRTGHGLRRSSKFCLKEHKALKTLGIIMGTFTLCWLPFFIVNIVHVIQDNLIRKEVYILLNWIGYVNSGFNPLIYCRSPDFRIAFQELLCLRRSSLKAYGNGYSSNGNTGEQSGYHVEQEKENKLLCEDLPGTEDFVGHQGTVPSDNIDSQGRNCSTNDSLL

[26] = target: T5, Beta-2 adrenergic receptor; test: ADRB2 activation measured by internalization – cell-based, FAP fluorogen, flow cytometry, cherry pick 1, dose response (AID 588763); assay type: functional
Mu-type opioid receptor = Mu-type opioid receptor (Homo sapiens, UniProt P35372); assay type: functional, cell-based;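 further: U2OS cells with beta-arrestin recruitment to OPRM1 by beta-gal complementation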
Mu-type opioid receptor, sequence (P35372 whole entry): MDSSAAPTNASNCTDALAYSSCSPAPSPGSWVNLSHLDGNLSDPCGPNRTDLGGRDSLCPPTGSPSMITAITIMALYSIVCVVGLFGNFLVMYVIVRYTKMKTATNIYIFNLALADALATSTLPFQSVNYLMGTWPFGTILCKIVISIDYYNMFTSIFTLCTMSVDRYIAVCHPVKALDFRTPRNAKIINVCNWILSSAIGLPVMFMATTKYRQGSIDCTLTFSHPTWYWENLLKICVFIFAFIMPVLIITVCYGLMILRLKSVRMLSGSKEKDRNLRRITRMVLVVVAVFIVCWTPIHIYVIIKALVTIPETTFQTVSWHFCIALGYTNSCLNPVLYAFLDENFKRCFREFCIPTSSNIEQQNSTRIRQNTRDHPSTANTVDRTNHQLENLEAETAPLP

[27] = target: 5-hydroxytryptamine receptor 2A (Mus musculus, UniProt P35363); assay type: functional, cell-based;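 further: CHO-K1 cells with tagged receptor and beta-arrestin; agonist potency measured as compound-induced activation of the receptor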
5-hydroxytryptamine receptor 2A, sequence (P35363 whole entry): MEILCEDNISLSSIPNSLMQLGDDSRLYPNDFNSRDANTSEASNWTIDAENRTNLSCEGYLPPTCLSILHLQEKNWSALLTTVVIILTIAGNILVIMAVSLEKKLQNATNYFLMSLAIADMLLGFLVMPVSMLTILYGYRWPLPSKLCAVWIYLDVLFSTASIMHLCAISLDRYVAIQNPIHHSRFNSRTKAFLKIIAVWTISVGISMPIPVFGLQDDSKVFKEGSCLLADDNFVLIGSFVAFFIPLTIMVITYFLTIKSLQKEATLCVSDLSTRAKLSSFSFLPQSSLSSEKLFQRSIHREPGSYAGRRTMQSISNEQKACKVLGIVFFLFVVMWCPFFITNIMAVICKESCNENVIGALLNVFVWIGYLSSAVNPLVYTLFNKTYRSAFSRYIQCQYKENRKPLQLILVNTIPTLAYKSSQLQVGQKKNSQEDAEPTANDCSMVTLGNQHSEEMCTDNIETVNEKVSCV

Galanin receptor type 3, sequence (O60755 whole entry): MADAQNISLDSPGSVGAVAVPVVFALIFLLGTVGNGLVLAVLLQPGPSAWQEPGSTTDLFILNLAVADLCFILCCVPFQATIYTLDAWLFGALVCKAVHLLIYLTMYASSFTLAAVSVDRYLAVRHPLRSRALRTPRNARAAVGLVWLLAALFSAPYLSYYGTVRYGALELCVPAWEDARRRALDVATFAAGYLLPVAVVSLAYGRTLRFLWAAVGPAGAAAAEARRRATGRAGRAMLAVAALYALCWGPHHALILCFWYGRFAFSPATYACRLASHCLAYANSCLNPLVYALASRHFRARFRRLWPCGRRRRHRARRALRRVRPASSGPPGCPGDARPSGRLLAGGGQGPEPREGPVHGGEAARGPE

SMILES: CNc1ccccc1C(C)(C)c1cc(-c2ccc(F)cc2)no1
IC50 (Galanin receptor type 3): 3.74 µM (active)
EC50 (cells [1]): > 29.9 µM (inactive)

IC50 (Beta-galactosidase): > 80 µM (inactive)
SMILES: S=C(NCC1CCCO1)N1CCN(c2nc(-c3ccc(Cl)cc3)cs2)CC1 (configuration not stated)

SMILES: CC1CCN(C(=O)COc2cccc3c2CCN(Cc2ccccc2)C3=O)CC1
AC50 (cells [2]): 28.7 µM (active)

SMILES: CC(=O)N1c2ccc(S(=O)(=O)N3CCC(C(=O)N4CCN(c5cccc(C(F)(F)F)c5)CC4)CC3)cc2CC1C (configuration not stated)
AC50 (INS1): 7.43 µM (active)
AC50 [3]: 1.28 µM (active)
AC50 [4]: > 70 µM (inactive)
AC50 [5]: 4.45 µM (active)
AC50 [6]: 1.54 µM (active)
AC50 [7]: 1.47 µM (active)

IC50 [8]: > 66 µM (inactive)
IC50 [9]: > 66 µM (inactive)
IC50 (Caspase-3): 23.9 µM (active)
IC50 [12]: 67.5 µM (inactive)
SMILES: COc1ccc2c(c1)Cc1sc(NC(C)=O)nc1-2
IC50 [10]: 9.19 µM (active)
IC50 [11]: 6.35 µM (active)

SMILES: CCOC(=O)C1CCCN(c2c(C(=O)c3ccccc3)cnc3ccc(OC)cc23)C1 (configuration not stated)
EC50 [13]: > 29.9 µM (inactive)
IC50 [14]: 4.06 µM (active)
IC50 [15]: > 29.9 µM (inactive)
EC50 [16]: 11.6 µM (inactive)

IC50 [17]: 56.9 µM (inactive)
IC50 [18]: > 122 µM (inactive)
SMILES: O=C(C[S+]([O-])c1cccc(C(F)(F)F)c1)Nc1ccc(Cl)cc1Cl (configuration not stated)

SMILES: Clc1cccc(Cl)c1CONC=Nc1ncnc2sccc12
EC50 (HEK293 [19]): > 20 µM (inactive)
IC50 (HEK293 [20]): 7.79 µM (active)
IC50 (HEK293 [21]): > 20 µM (inactive)
IC50 (HEK293 [22]): 8.22 µM (active)
IC50 [23]: 30.3 µM (inactive)
IC50 [24]: 12.3 µM (inactive)

EC50 [25]: 0.0199 µM (active)
EC50 [26]: 0.0672 µM (active)
SMILES: CC(C)(C)c1ccc(OCC(=O)Nc2ccc(-c3nc4cccnc4o3)cc2)cc1

EC50 (Mu-type opioid receptor): 92.5 µM (inactive)
EC50 [27]: 76.1 µM (inactive)
SMILES: OCC1(Cc2ccc(Cl)cc2)CCN(CCCc2ccccc2)CC1
